Assay results as given in ChEMBL document CHEMBL1152019, “A series of conformationally and sterically constrained analogs of N-phenyl-N-aralkylurea ACAT inhibitors” (Bioorg Med Chem Lett, 1995).
Calls of active or inactive are those of the source. No cut-off for these calls is given here.

Key:
O-acyltransferase = O-acyltransferase (Oryctolagus cuniculus, UniProt G1SFD9); assay: In vitro inhibitory activity against ACAT was determined in rabbit intestinal microsome from cholesterol-fed animals; type: microsomes, Intestine
Rattus norvegicus [1] = assay: Compound was evaluated in vivo for percent change of total cholesterol compared to control at a dose 30 mg/Kg in rats fed with cholic acid (0.5%), cholesterol (1.5%) and peanut oil (5.5%); No change; type: functional, organism-based
Rattus norvegicus [2] = assay: In vivo percent change of total cholesterol compared to control at a dose 30 mg/Kg in rats fed with cholic acid (0.5%), cholesterol (1.5%) and peanut oil (5.5%).; type: functional

Sequence of O-acyltransferase (G1SFD9 1-524): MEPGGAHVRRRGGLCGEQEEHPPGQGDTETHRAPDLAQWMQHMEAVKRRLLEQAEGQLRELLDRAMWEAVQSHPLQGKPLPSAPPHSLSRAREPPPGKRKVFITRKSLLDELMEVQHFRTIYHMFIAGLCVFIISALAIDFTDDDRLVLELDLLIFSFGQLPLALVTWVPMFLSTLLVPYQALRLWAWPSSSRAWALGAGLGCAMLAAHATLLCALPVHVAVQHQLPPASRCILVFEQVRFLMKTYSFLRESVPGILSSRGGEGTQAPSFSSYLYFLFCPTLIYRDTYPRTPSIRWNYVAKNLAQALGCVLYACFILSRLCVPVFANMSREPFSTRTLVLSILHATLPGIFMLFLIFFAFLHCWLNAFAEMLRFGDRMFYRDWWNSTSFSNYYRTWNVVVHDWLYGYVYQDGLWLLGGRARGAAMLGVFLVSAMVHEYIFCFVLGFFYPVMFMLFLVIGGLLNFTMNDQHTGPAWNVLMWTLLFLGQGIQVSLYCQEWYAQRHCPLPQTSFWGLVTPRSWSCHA

SMILES | IC50 (O-acyltransferase) | Change (Rattus norvegicus [1]) | Change (Rattus norvegicus [2])
CC(C)c1cccc(C(C)C)c1NC(=O)NCCc1ccccc1 | – | – | -16%
CC(C)c1cccc(C(C)C)c1NC(=O)NCCc1ccc2ccccc2c1 | – | – | -54%
CC(C)c1cccc(C(C)C)c1NC(=O)NCC1(c2ccc(N(C)C)cc2)CCCC1 [NEVANIMIBE] | – | – | -76%
CC(C)c1cccc(C(C)C)c1NC(=O)NC1COc2ccccc2C1 (stereo unspecified) | 110 nM | – | -20%
CC(C)c1cccc(C(C)C)c1NC(=O)NC1Cc2ccccc2C1 | 96 nM | – | -8%
CC(C)c1cccc(C(C)C)c1NC(=O)NCC(c1ccccc1)c1ccccc1 | – | – | -73%
CC(C)c1cccc(C(C)C)c1NC(=O)NCCc1cccc2ccccc12 | – | – | -32%
CC(C)c1cccc(C(C)C)c1NC(=O)NCC1c2ccccc2-c2ccccc21 | – | – | -41%
CC(C)c1cccc(C(C)C)c1NC(=O)NC1CCCc2ccccc21 (stereo unspecified) | – | inactive | –
CC(C)c1cccc(C(C)C)c1NC(=O)NCC1(O)CCc2ccccc21 (stereo unspecified) | 810 nM | inactive | –
CC(C)c1cccc(C(C)C)c1NC(=O)NOC(c1ccccc1)(c1ccccc1)c1ccccc1 | – | – | -30%
CC(C)c1cccc(C(C)C)c1NC(=O)NCC1CCc2ccccc21 (stereo unspecified) | 27 nM | – | -49%
CC(C)c1cccc(C(C)C)c1NC(=O)NOCc1cccc2ccccc12 | – | – | -32%
CC(C)c1cccc(C(C)C)c1NC(=O)NCC1(c2ccccc2)CCCC1 | – | – | -70%
CC(C)c1cccc(C(C)C)c1NC(=O)NCC1CCCc2ccccc21 (stereo unspecified) | 36 nM | – | -47%
CC(C)c1cccc(C(C)C)c1NC(=O)NOC(c1ccccc1)c1ccccc1 | – | – | -67%

Now from value to molecule, other results behind:

IC50 (O-acyltransferase) | SMILES | Change (Rattus norvegicus [1]) | Change (Rattus norvegicus [2])
350 nM | CC(C)c1cccc(C(C)C)c1NC(=O)NCC1(O)CCCc2ccccc21 (stereo unspecified) | inactive | –
42 nM | CC(C)c1cccc(C(C)C)c1NC(=O)NCC1c2ccccc2Oc2ccccc21 | – | -25%
91 nM | CC(C)c1cccc(C(C)C)c1NC(=O)NCC(c1ccccc1)(c1ccccc1)c1ccccc1 | – | -68%
31 nM | CC(C)c1cccc(C(C)C)c1NC(=O)NC1CCc2ccccc2C12CCCC2 (stereo unspecified) | – | -49%
910 nM | CC(C)c1cccc(C(C)C)c1NC(=O)NC1CCc2ccccc21 (stereo unspecified) | inactive | –
29 nM | CC(C)c1cccc(C(C)C)c1NC(=O)NCC1=CCCc2ccccc21 | – | -33%
34 nM | CC(C)c1cccc(C(C)C)c1NC(=O)NCc1cccc2ccccc12 | – | -53%
17 nM | COc1cccc2c1CCC(NC(=O)Nc1c(C(C)C)cccc1C(C)C)C2 (stereo unspecified) | – | -39%
27 nM | CC(C)c1cccc(C(C)C)c1NC(=O)NCC1(c2ccccc2)Cc2ccccc2C1 | – | -67%
63 nM | CC(C)c1cccc(C(C)C)c1NC(=O)NC1CCc2ccccc2C1 (stereo unspecified) | – | -26%
